Read-outs that look alike come from different tables or passages of the source.
Legend:
[1] = biological target: T1, ASIC1a (Homo sapiens, UniProt P78348); experiment: Calcium-imaging (FLIPR) of MES-induced calcium response in ASIC1a expressing HEK293 cells; format: cell-based; set-up: host or cells: HEK293
T1 sequence (P78348 1-528): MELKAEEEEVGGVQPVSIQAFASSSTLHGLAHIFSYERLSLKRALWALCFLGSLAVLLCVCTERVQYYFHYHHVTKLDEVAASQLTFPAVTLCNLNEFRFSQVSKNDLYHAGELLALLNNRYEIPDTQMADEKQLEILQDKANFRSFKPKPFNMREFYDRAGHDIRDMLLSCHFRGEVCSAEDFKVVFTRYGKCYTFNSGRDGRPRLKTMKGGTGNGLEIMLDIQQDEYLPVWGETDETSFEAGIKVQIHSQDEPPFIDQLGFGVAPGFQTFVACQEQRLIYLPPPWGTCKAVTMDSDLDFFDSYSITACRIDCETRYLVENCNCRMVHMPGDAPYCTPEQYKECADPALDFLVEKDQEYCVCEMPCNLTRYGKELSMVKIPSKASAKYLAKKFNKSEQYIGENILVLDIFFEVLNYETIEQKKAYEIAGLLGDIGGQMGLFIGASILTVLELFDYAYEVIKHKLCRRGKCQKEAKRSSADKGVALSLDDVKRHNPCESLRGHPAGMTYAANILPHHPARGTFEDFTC
Description: Identification of ASIC Antagonists Using Calcium-Imaging
ASIC1a expressing HEK293 cells are grown in culture medium (DMEM with 10% FBS), in polystyrene culture flasks (175 mm 2) at 37° C. in a humidified atmosphere of 5% CO2. Confluency of cells should be 80-90% on day of plating. Cells are rinsed with 10 ml of PBS and cells are re-suspended by addition of culture medium and trituration with a 25 ml pipette.
The cells are seeded at a density of approximately 1×10^6 cells/ml (100 μl/well) in black-walled, clear bottom, 96-well plates pre-treated with 10 mg/l poly-D-lysin (75 μl/well for ≧30 min). Plated cells are allowed to proliferate for 24 h before loading with dye.
Loading with Fluorescent Calcium Dye Fluo-4/AM
Fluo-4/AM (1 mg, Molecular Probes) is dissolved in 912 μl DMSO. The Fluo-4/AM stock solution (1 mM) is diluted with culture medium to a final concentration of 2 μM (loading solution).
The culture medium is aspirated from the wells, and 50 μl of the Fluo-4/AM loading solution is added to each well. The cells are incubated at 37° C. for 30 min.
After the loading period, the loading solution is aspirated and the cells are washed twice with 100 μl modified Assay Buffer (145 mM NaCl, 5 mM KCl, 5 mM CaCl2, 1 mM MgCl2, 10 mM HEPES, pH 7.4) to remove extracellular dye. Following the second wash, 100 μl modified Assay Buffer is added to each well and the fluorescence is measured in FLIPR™ or FlexStation™ (Molecular Devices, USA), or any other suitable equipment known to the skilled in the art.
Temperature: Room temperature (20-22° C.)
First addition: 50 μl test solution at a rate of 30 μl/sec and a starting height of […]
Second addition: 50 μl MES solution (20 mM, 5 mM final concentration) at a rate of 35 μl/sec and a starting height of 150 μl.
Reading intervals: pre-incubation—10 sec×7 and 3 sec×3 antagonist phase—3 sec×17 and 10 sec×12
Addition plates (compound test plate and MES plate) are placed on the right and left positions in the FLIPR tray, respectively. Cell plates are placed in the middle position and the ASIC1a program is effectuated. FLIPR will then take the appropriate measurements in accordance with the interval settings above. Fluorescence obtained after stimulation is corrected for the mean basal fluorescence (in modified Assay Buffer).
Hit Confirmation and Characterization of Active Substances
The MES-induced peak calcium response, in the presence of test substance, is expressed relatively to the MES response alone. Test substances that block the MES-induced calcium response are re-tested in triplicates. […]

[2] = biological target: T1, ASIC1a; experiment: Two-electrode voltage clamp of acid-induced currents in Xenopus laevis oocytes; format: cell-based; set-up: expressed in transfected cells; host or cells: Xenopus laevis oocytes, nuclear microinjection of an expression vector such as pCDNA3; settings: 50 μM, Xenopus oocytes; read-out: % inh. at 50 μM (Xo)
Description: Screening and Bioanalysis of ASIC Antagonists in Xenopus laevis oocytes
This example describes the in vitro assessment of the activity of the compounds of the present invention.
Two-electrode voltage clamp electrophysiological assays in Xenopus laevis oocytes expressing gated ion channels are performed as follows:
Oocytes are surgically removed from adult Xenopus laevis and treated for 2 h at room temperature with 1 mg/ml type I collagenase (Sigma) in Barth's solution under mild agitation. Selected oocytes at stage IV-V are defolliculated manually before nuclear microinjection of 2.5-5 ng of a suitable expression vector, such as pCDNA3, comprising the nucleotide sequence encoding a gated ion channel subunit protein. In such an experiment, the oocytes express homomultimeric proton-gated ion channels on their surface. In an alternate experiment, one, two, three or more vectors comprising the coding sequences for distinct gated ion channel subunits are co-injected in the oocyte nuclei. In the latter case, oocytes express heteromultimeric proton-gated ion channels. For example, ASIC2a and/or ASIC3 subunits in pcDNA3 vector are co-injected at a 1:1 cDNA ratio. After 2-4 days of expression at 19° C. in Barth's solution containing […] gentamicin and 1.8 mM CaCl2, gated ion channels are activated by applying an acidic solution (pH<7) and currents are recorded in a two electrode voltage-clamp configuration, using an OC-725B amplifier (Warner Instruments). Currents are acquired and digitized at 500 Hz on an Apple Imac G3 computer with an A/D NB-MIO-16XL interface (National Instruments) and recorded traces are post-filtered at 100 Hz in Axograph (Axon Instruments) (Neher, E. and Sakmann, B. (1976) Nature 260:799-802). Once impaled with the microelectrodes, oocytes are continuously superfused at 10-12 ml/min with a modified Ringer's solution containing 97 mM NaCl, 2 mM KCl, 1.8 mM CaCl2, and 10 mM HEPES brought to pH 7.4 with NaOH (Control Ringer). Test Ringer solution is prepared by replacing HEPES with MES and adjusting the pH to the desired acidic value. Compounds of the present invention are prepared in both the Control and Test Ringer solutions and applied to oocytes at room temperature through a computer-controlled switching valve system. Osmolarity of all solutions is adjusted to 235 mOsm with choline chloride. Similarly, recordings can also be acquired in an automated multichannel oocytes system as the OpusExpress™ (Molecular Devices, Sunnyvale, USA).
FIGS. 1A and 2A illustrate the inhibitory effects of Compounds 12 and 44 on acid-induced activation of recombinant homomeric hASIC1a channels. FIGS. 1A and 2A show the dose-dependent inhibition of the acid-induced hASIC1a currents recorded from Xenopus laevis oocytes using the two-electrode voltage clamp method (as described in this example) in the absence or presence of increasing concentration of the compounds.

[3] = MES-induced calcium response, ASIC1a expressing HEK293 cells, read-out: IC50 (FLIPR)

| Compound | IC50 [1, 3] | inhibition at 50 µM [2] | IC50 [1] |
| --- | --- | --- | --- |
| CCN1CCc2c(-c3ccccc3OC)cc(C#N)c(N)c2C1 [Compound 45] | 10 to 20 µM | > 50% | – |
| CCN1CCc2c(-c3cc(C)cc(C)c3)cc(C#N)c(N)c2C1 [Compound 48] | – | > 50% | < 10 µM |
| CCN1CCc2c(-c3ccccc3)cc(C#N)c(N(C)C)c2C1 [Compound 50] | 10 to 20 µM | > 50% | – |
